# Assay results published in patent US10918640B2, “Azetidine derivatives” (Vernalis (R&D) Ltd., priority 2008, dated 2021).
# Tested on: carrageenan-induced thermal hypersensitivity
# Assay: Rat carrageenan induced thermal hyperalgesia model of inflammatory pain
# Assay type: in vivo
# Description: Rat Carrageenan Induced Thermal Hyperalgesia Model of Inflammatory Pain.
# Male Wistar rats were assessed for thermal pain sensitivity by applying a focused light beam onto the hind paws and recording the time to paw withdrawal, before and after local intraplantar administration of carrageenan. After 3 h. thermal pain sensitivity was reassessed in treated and untreated hind paws prior to dosing with test compound or vehicle. Indomethacin was administered as a positive control.
# Male Sprague Dawley rats were tail-marked, and acclimatized to the plantar boxes on 3 separate occasions (6, 5 and 1 day prior to the test day) for at least 5 min on each occasion. […] The latency to withdraw both left and right hindpaws from the heat source was determined on 2 occasions (3 min apart). The mean across the 2 challenges was recorded as the baseline for each animal. Rats 18 and 30 were not used in the study as they had very high baseline readings, and they were replaced by 61 and 63. […]
# For example, the compound of Example 13 above was tested as follows: Rats were dosed with intraplantar carrageenan at t=0; the compound of Example 13 (1, 3 & 10 mg/kg po) or vehicle (5% EtOH: 95% (1% methylcellulose in water) at t=2 h; indomethacin (10 mg/kg ip) or vehicle at t=2.5 h and thermal sensitivity was measured at t=3 h. Thus all rats received both oral and ip dosing.
compound,measurement,setting,value
"O=C(Nc1cccnn1)N1CC(Oc2ccc(-c3ccccc3)cn2)C1 [Example 13, 3-(5-Phenyl-pyridin-2-yloxy)-azetidine-1-carboxylic acid pyridazin-3-ylamide]",pain sensitivity relative to normal levels,"1, 3, 10 mg/kg p.o., rat",did not reduce pain sensitivity to below normal levels
same,statistical significance of inhibition cf. vehicle/carrageenan group,"at 3 and 10 mg/kg doses p.o., one way ANOVA followed by Newman-Keuls post hoc tests",reached statistical significance
